In patent publication US10117942B2, “Photoactivatable lipid-based nanoparticles as vehicles for dual agent delivery” (The United States of America, as represented by the …, priority 2013, dated 2018):

Experiments:
[1] = 0.5 mg or 2.5 mg liposomal lipid
Experimental: As a control, mice were injected with doxorubicin in the absence of liposomes.

[2] = at physiological pH; cited from earlier work

SMILES | organ uptake (fluorescence Ex=500, Em=600) [1] | log P [2]
COc1cccc2c1C(=O)c1c(O)c3c(c(O)c1C2=O)C[C@@](O)(C(=O)CO)C[C@@H]3O[C@H]1C[C@H](N)[C@H](O)[C@H](C)O1 [doxorubicin] | no fluorescence was observed | –
CCCCCCOC(C)c1c(C)c2cc3nc(c4c5[nH]c(cc6nc(cc1[nH]2)C(C)=C6CC)c(C)c5C(=O)C4)[C@@H](CCC(=O)O)[C@@H]3C (some centres unmarked) [HPPH, 2-[1-hexyloxyethyl]-2-devinyl pyropheophorbide-a] | – | 5.6
